From patent publication US10376475B2, “Method of use” (Dermavant Sciences GmbH, priority 2014, dated 2019)
Read-outs that look alike come from different tables or passages of the source.

How the values were obtained:
IL-17 = IL-17 secretion by pre-existing (differentiated) Th17 polarized cells after TCR stimulus
P. acnes = experiment: MIC against P. acnes on supplemented Brucella blood agar (CLSI); type: cell-based, Propionibacterium acnes
Description: Bacterial strains utilized to evaluate this concept of antibacterial synergy were the clinical isolates P. acnes 6601, 6602, AN24, 100372, and reference strain ATCC6919. These were received from the internal culture GSK collection held by the Infectious Disease CEDD at the Upper Providence site. Bacteria inocula were prepared, and the determination of the minimal inhibitory concentration (MIC) were conducted on supplemented Brucella blood agar as described for the CLSI guideline method (Bhate, K. et al. Brit. J. Derm. 168:474-485, 2013). Briefly, diluted antibacterials were added to tempered molten agar and aseptically poured into petri dishes and allowed to solidify. Following 24-hours incubation in an anaerobic environment bacterial colonies were suspended and adjusted for turbidity equivalent to a 0.5 MacFarland standard. One-two microliters of inoculums were placed on each antibiotic containing agar plate and allowed to absorb for 30 min. Plates were then inverted and incubated anaerobically for 48-72 hours before observation for growth. The lowest drug concentration which inhibited bacterial growth was designated as the MIC.

IL-17A [1] = type: cell-based
primary human cell types = experiment: BioMAP Diversity Plus System profile comparison; settings: 148 phenotypic readouts, at one or more test concentration
[2] = mouse ear edema; cited from earlier work
[3] = system: human immortalized sebocytes; experiment: Sebocyte lipogenesis assay (14C-acetate); type: cell-based; settings: 10, 3, 1, 0.3 and 0.1 μM
Description: Briefly, human immortalized sebocytes (tsSV40 and hTERT) were seeded and allowed to grow to confluence in Sebocyte Growth Medium. Upon confluence, cells were transferred to […] to initiate Large T antigen degradation. Two days later, cells were stimulated with Sebocyte Labeling Medium containing 1 μM T0901317 and vehicle (DMSO) or compound 1. […] Next day, the media was replaced with Sebocyte Labeling Medium containing 1 μM T0901317 and original treatments or vehicle plus 1 μM insulin. 2 ul of 14C-acetate was added per well and the plate incubated for 4 hours. After 2 hours of incubation, 10 ul of CTB reagent was added per well for normalization. Incubation was continued for the remaining 2 hours and plates were read at Ex. 560 Em.590 for CTB signal. Cells were then washed, trypsinized and transferred to glass vials for lipid extraction. The results are expressed as % lipid production relative to control (LXR+Insulin group).
FIG. 4, the data represent % inhibition relative to control (LXR+Insulin group). Data are represented as Mean±SEM. Data are from 3 replicates.

[4] = system: primary human keratinocytes; experiment: Keratinocyte viability (annexin V / propidium iodide flow cytometry); type: cell-based; settings: 10 and 30 uM, 48 hours
Description: Keratinocyte hyperproliferation increases blockage and can promote comedome formation in acne. […] The ability of Compound 1 to induce apoptosis in primary keratinocytes may contribute to efficacy in acne patients.
Primary human keratinocytes were cultured in EpiLife medium containing HKGS growth supplement and seeded in tissue culture plates at 250,000 cells per plate. On the next day, the culture medium was removed and keratinocytes were then treated with culture medium containing vehicle control (DMSO) or increasing concentrations of Compound 1 (1, 10, 30 uM). After 48 hours of culture, keratinocytes were removed from tissue culture plates and cell viability was assessed by staining for apoptotic markers (annexin V and propidium iodide) using flow cytometry.

IL-17A [5] = experiment: IL-17A protein secretion by peripheral blood CD4+ T cells cultured under Th17 polarizing conditions (Magpix); type: cell-based; settings: 5 days of culture, titrating doses
Description: To further understand the active dose range of compound 1-mediated suppression of Th17-associated cytokines, IL-17A protein secretion was examined in peripheral blood CD4+ T cells following 5 days of culture under Th17 polarizing conditions in the presence or absence of titrating doses of Compound 1 (FIG. 2). Supernatants were harvested at the end of the culture period and secreted protein was analyzed by Magpix (magnetic-based Luminex technology).

| SMILES | effect on IL-17 (IL-17; 30 μM) | effect on IL-17 (IL-17; lower concentrations (below 30 μM)) | MIC (P. acnes; Cutibacterium acnes, P. acnes reference strain ATCC6919, read-out: MIC) | MIC (P. acnes; Cutibacterium acnes, all P. acnes strains tested, read-out: MIC) | MIC (P. acnes; P. acnes strain 6601) | MIC (P. acnes; P. acnes strain 6602) | MIC (P. acnes; P. acnes strain 100372) | MIC (P. acnes; P. acnes strain AN24) | antibacterial activity against P. acnes (P. acnes; judgement based on MIC results) | suppression of IL-17 secretion (IL-17A [1]; 100 nM) | reduction of IL-17 (IL-17A [1]; 10 μM) | IL-17A mRNA expression (IL-17A [1]; normalized to PPIB, 5-day culture) | number of biomarkers modulated (primary human cell types) | skin redness and thickness [2] | lipogenesis relative to control (LXR+Insulin group) [3] | lipogenesis relative to control (LXR+Insulin group) ([3]; listed as compound 1) | keratinocyte viability / cytotoxicity [4] | IL-17A protein levels (IL-17A [5]) | reduction of IL-17 levels relative to stimulus alone (IL-17; 30 μM, 24 hours) |
| --- | --- | --- | --- | --- | --- | --- | --- | --- | --- | --- | --- | --- | --- | --- | --- | --- | --- | --- | --- |
| Oc1ccc(C=Cc2cc(O)cc(O)c2)cc1 [Resveratrol] | partial inhibition | enhancement | – | – | – | – | – | – | – | – | – | – | – | – | – | – | – | – | – |
| CC(C)c1c(O)cc(/C=C/c2ccccc2)cc1O [Compound 1] | – | – | 128 µg/mL | 128 µg/mL | 128 µg/mL | 128 µg/mL | 128 µg/mL | 128 µg/mL | would not be considered to be active | more than 60% | approximately 80% | inhibited IL-17A mRNA expression in parallel and at the same potency as secretion of IL-17 protein | more than 25 | dose dependent reduction in both skin redness and thickness | not active | trends towards increased lipogenesis | overtly cytotoxic | suppressed by compound 1 in a dose-dependent manner | 80-95% |
